From PubChem BioAssay (NCI)
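Cells were grown in 96-well plates and exposed to each compound for 48 hours at five concentrations; endpoints were interpolated linearly between bracketing concentrations, or set to the highest concentration if not reached. TGI: total growth inhibition.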

How the values were obtained:
Test in all cases: NCI-60 cell line screen, 48 h
MOLT-4 leukemia = system: MOLT-4 leukemia
K-562 leukemia = system: K-562 leukemia
NCI/ADR-RES ovarian = system: NCI/ADR-RES ovarian
HCC-2998 colon = system: HCC-2998 colon
SF-295 CNS = system: SF-295 CNS
SK-MEL-28 melanoma = system: SK-MEL-28 melanoma
HS 578T breast = system: HS 578T breast
OVCAR-4 ovarian = system: OVCAR-4 ovarian
COLO 205 colon = system: COLO 205 colon
SNB-19 CNS = system: SNB-19 CNS
UO-31 renal = system: UO-31 renal
CCRF-CEM leukemia = system: CCRF-CEM leukemia
SK-MEL-5 melanoma = system: SK-MEL-5 melanoma
NCI-H460 lung = system: NCI-H460 lung
NCI-H226 lung = system: NCI-H226 lung
MDA-MB-231 breast = system: MDA-MB-231 breast
SNB-75 CNS = system: SNB-75 CNS
HOP-92 NSCLC = system: HOP-92 NSCLC
OVCAR-8 ovarian = system: OVCAR-8 ovarian
MDA-MB-435 = system: MDA-MB-435
HL-60(TB) leukemia = system: HL-60(TB) leukemia
TK-10 renal = system: TK-10 renal
IGROV1 ovarian = system: IGROV1 ovarian
DU-145 prostate = system: DU-145 prostate
RXF 393 renal = system: RXF 393 renal
CAKI-1 renal = system: CAKI-1 renal
HOP-62 NSCLC = system: HOP-62 NSCLC
BT-549 breast = system: BT-549 breast
UACC-62 melanoma = system: UACC-62 melanoma
A549 NSCLC = system: A549 NSCLC
SR leukemia = system: SR leukemia
OVCAR-5 ovarian = system: OVCAR-5 ovarian
RPMI-8226 leukemia = system: RPMI-8226 leukemia
NCI-H522 lung = system: NCI-H522 lung
786-0 renal = system: 786-0 renal
ACHN renal = system: ACHN renal
SF-539 CNS = system: SF-539 CNS
SF-268 CNS = system: SF-268 CNS
KM12 colon = system: KM12 colon
U251 CNS = system: U251 CNS
M14 melanoma = system: M14 melanoma
A498 renal = system: A498 renal
LOX IMVI melanoma = system: LOX IMVI melanoma
T-47D breast = system: T-47D breast
UACC-257 melanoma = system: UACC-257 melanoma
HT29 colon = system: HT29 colon
EKVX NSCLC = system: EKVX NSCLC
HCT-15 colon = system: HCT-15 colon
SW-620 colon = system: SW-620 colon
MDA-N = system: MDA-N
SN12C renal = system: SN12C renal
SK-MEL-2 melanoma = system: SK-MEL-2 melanoma
PC-3 prostate = system: PC-3 prostate
NCI-H23 lung = system: NCI-H23 lung
OVCAR-3 ovarian = system: OVCAR-3 ovarian
MCF7 breast = system: MCF7 breast
SK-OV-3 ovarian = system: SK-OV-3 ovarian
MALME-3M melanoma = system: MALME-3M melanoma
HCT-116 colon = system: HCT-116 colon

`O=C(c1c2c(cc3c1CC1(Cc4cc5c(cc4C1)CCCC5)C3)CCCC2)C(Br)Br` showed a TGI (MOLT-4 leukemia) of 6.33 µM, a TGI (K-562 leukemia) of 18 µM and a TGI (NCI/ADR-RES ovarian) of 50.7 µM. The TGI (HCC-2998 colon) was 54.3 µM, the TGI (SF-295 CNS) was over 100 µM and the TGI (SK-MEL-28 melanoma) was 30.7 µM. It also gave a TGI (HS 578T breast) of over 70.2 µM, a TGI (OVCAR-4 ovarian) of 41.6 µM and a TGI (COLO 205 colon) of 32.7 µM. It also gave a TGI (SNB-19 CNS) of over 55.1 µM, a TGI (UO-31 renal) of 26.8 µM and a TGI (CCRF-CEM leukemia) of 5.14 µM. For the same compound, the TGI (SK-MEL-5 melanoma) was 14.4 µM, the TGI (NCI-H460 lung) was over 100 µM and the TGI (NCI-H226 lung) was 14.3 µM. The TGI (MDA-MB-231 breast) was 38.2 µM, the TGI (SNB-75 CNS) was 31.7 µM and the TGI (HOP-92 NSCLC) was 31.9 µM. The TGI (OVCAR-8 ovarian) was 50.4 µM, the TGI (MDA-MB-435) was 28.7 µM and the TGI (HL-60(TB) leukemia) was over 39.1 µM. The TGI (TK-10 renal) was 30.9 µM, the TGI (IGROV1 ovarian) was 27.1 µM and the TGI (DU-145 prostate) was over 100 µM. It also gave a TGI (RXF 393 renal) of 28.7 µM, a TGI (CAKI-1 renal) of 24.2 µM and a TGI (HOP-62 NSCLC) of over 81.7 µM. It also gave a TGI (BT-549 breast) of 21.6 µM, a TGI (UACC-62 melanoma) of 34.3 µM and a TGI (A549 NSCLC) of over 100 µM. It also gave a TGI (SR leukemia) of 8.05 µM, a TGI (OVCAR-5 ovarian) of over 66.7 µM and a TGI (RPMI-8226 leukemia) of over 61.9 µM. It also gave a TGI (NCI-H522 lung) of 3.18 µM, a TGI (786-0 renal) of 29.1 µM and a TGI (ACHN renal) of 27 µM. The TGI (SF-539 CNS) was 38.3 µM, the TGI (SF-268 CNS) was 41.7 µM and the TGI (KM12 colon) was 56.3 µM. The TGI (U251 CNS) was 30.3 µM, the TGI (M14 melanoma) was 15.7 µM and the TGI (A498 renal) was 86.6 µM. It also gave a TGI (LOX IMVI melanoma) of 3.42 µM, a TGI (T-47D breast) of 27.9 µM and a TGI (UACC-257 melanoma) of 41.9 µM. The TGI (HT29 colon) was 44.5 µM, the TGI (EKVX NSCLC) was over 59.8 µM and the TGI (HCT-15 colon) was 33 µM. For the same compound, the TGI (SW-620 colon) was 20.5 µM, the TGI (MDA-N) was 29 µM and the TGI (SN12C renal) was 44.9 µM. For the same compound, the TGI (SK-MEL-2 melanoma) was 39.6 µM, the TGI (PC-3 prostate) was 26.9 µM and the TGI (NCI-H23 lung) was 36.5 µM. It also gave a TGI (OVCAR-3 ovarian) of 38.9 µM, a TGI (MCF7 breast) of 20.2 µM and a TGI (SK-OV-3 ovarian) of 96.9 µM. For the same compound, the TGI (MALME-3M melanoma) was 10.7 µM and the TGI (HCT-116 colon) was 29.1 µM.
Compound `N=[N+]=NC1C(O)C(CO)OC1n1cnc2c(N)ncnc21` (stereo not drawn) has a TGI (MOLT-4 leukemia) of over 22.4 µM, a TGI (K-562 leukemia) of over 100 µM and a TGI (NCI/ADR-RES ovarian) of over 100 µM. The TGI (HCC-2998 colon) was over 100 µM, the TGI (SF-295 CNS) was over 100 µM and the TGI (SK-MEL-28 melanoma) was over 100 µM. It also gave a TGI (HS 578T breast) of over 100 µM, a TGI (OVCAR-4 ovarian) of over 100 µM and a TGI (COLO 205 colon) of over 100 µM. It also gave a TGI (SNB-19 CNS) of over 100 µM, a TGI (UO-31 renal) of over 100 µM and a TGI (CCRF-CEM leukemia) of over 29.8 µM. It also gave a TGI (SK-MEL-5 melanoma) of over 100 µM, a TGI (NCI-H460 lung) of over 100 µM and a TGI (NCI-H226 lung) of 97.4 µM. It also gave a TGI (MDA-MB-231 breast) of over 100 µM, a TGI (SNB-75 CNS) of over 100 µM and a TGI (HOP-92 NSCLC) of over 100 µM. It also gave a TGI (OVCAR-8 ovarian) of over 100 µM, a TGI (MDA-MB-435) of over 100 µM and a TGI (HL-60(TB) leukemia) of 6.44 µM. The TGI (TK-10 renal) was over 100 µM, the TGI (IGROV1 ovarian) was over 100 µM and the TGI (DU-145 prostate) was over 100 µM. The TGI (RXF 393 renal) was over 100 µM, the TGI (CAKI-1 renal) was over 100 µM and the TGI (HOP-62 NSCLC) was over 100 µM. The TGI (BT-549 breast) was over 100 µM, the TGI (UACC-62 melanoma) was over 100 µM and the TGI (A549 NSCLC) was over 100 µM. The TGI (SR leukemia) was 7 µM, the TGI (OVCAR-5 ovarian) was over 100 µM and the TGI (RPMI-8226 leukemia) was over 100 µM. It also gave a TGI (NCI-H522 lung) of over 100 µM, a TGI (786-0 renal) of over 100 µM and a TGI (ACHN renal) of 52.6 µM. The TGI (SF-539 CNS) was over 76.2 µM, the TGI (SF-268 CNS) was over 100 µM and the TGI (KM12 colon) was over 100 µM. For the same compound, the TGI (U251 CNS) was over 100 µM, the TGI (M14 melanoma) was over 100 µM and the TGI (A498 renal) was over 100 µM. For the same compound, the TGI (LOX IMVI melanoma) was over 83.5 µM, the TGI (T-47D breast) was over 100 µM and the TGI (UACC-257 melanoma) was over 100 µM. For the same compound, the TGI (HT29 colon) was over 100 µM, the TGI (EKVX NSCLC) was over 100 µM and the TGI (HCT-15 colon) was over 100 µM. It also gave a TGI (SW-620 colon) of over 100 µM, a TGI (MDA-N) of over 100 µM and a TGI (SN12C renal) of over 100 µM. The TGI (SK-MEL-2 melanoma) was over 100 µM, the TGI (PC-3 prostate) was over 100 µM and the TGI (NCI-H23 lung) was over 80 µM. It also gave a TGI (OVCAR-3 ovarian) of over 100 µM, a TGI (MCF7 breast) of over 100 µM and a TGI (SK-OV-3 ovarian) of over 100 µM. For the same compound, the TGI (MALME-3M melanoma) was over 100 µM and the TGI (HCT-116 colon) was over 100 µM.
